Common to all, as to assay: DTP human tumour cell line panel, 48 h
Assay [1] deals with KM12 colon.
The subject of assay [2] is M14 melanoma.
Assay [3] has as its system IGROV1 ovarian.
Assay [4] concerns SF-268 CNS.
For assay [5], the system named is CCRF-CEM leukemia.
Assay [6] relates to RPMI-8226 leukemia.
Assay [7] concerns NCI-H23 lung.
For assay [8], the system named is RXF 393 renal.
For assay [9], the system named is OVCAR-8 ovarian.
Assay [10] deals with NCI-H460 lung.

Where “and” joins values, the source holds several entries; their conditions need not be identical. Equal values may be shown once.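 Results reflect a 48-hour exposure of cells in 96-well plates to compound at five concentrations. The concentration for 50% growth inhibition is given as GI50. Definition used: TGI = concentration required for complete inhibition of growth.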 Bounds are passed on as bounds.

One may read the GI50 as the concentration giving 50% growth inhibition. One may read the TGI as the concentration at which net growth stops. Lower therefore signals more potent growth arrest. On to `C[n+]1ccc(-c2c3nc(c(-c4ccc5c(ccc[n+]5C)c4)c4ccc([nH]4)c(-c4cc[n+](C)cc4)c4nc(c(-c5ccc6c(ccc[n+]6C)c5)c5ccc2[nH]5)C=C4)C=C3)cc1`, for which the GI50 was 23.1 µM in assay [1]; above 50 µM in assay [2]; above 50 µM in assay [3]; above 50 µM in assay [4]; above 50 µM in assay [5]; above 50 µM in assay [6]. Further, the GI50 in assay [7] was above 50 µM; in assay [8], 13.9 µM; in [9] it was above 50 µM; in [10], 16.9 µM. The TGI in assay [1], in assay [2], in assay [3], in assay [4], in assay [5] and in assay [6] was above 50 µM in each case. The TGI in [7], in assay [8], in [9] and in [10] was above 50 µM each time.

In the case of `CC(C)[C@@H]1CC[C@@H]2[C@@H]1[C@H](OC(=O)/C=C/c1ccccc1)[C@]1(C(C)C)C[C@@H](OC(=O)CO)[C@@]2(C)O1`, the GI50 in [1] is 7.07 µM; in [2], 5.83 µM; in assay [3] it was 6.79 µM; in [4] it was 4.02 µM; in assay [5] it was 6.9 µM; in [6] it was 7.44 µM. Further, the GI50 in assay [7] was 6.88 µM; in assay [8], 3.31 µM; in [9], 0.0259 µM; in assay [10], 6.15 µM. The TGI in assay [1] came to 14.6 µM; in assay [2], 12.1 µM; in assay [3], 12.5 µM; in assay [4], 9.03 µM; in [5] it was 15.2 µM; in assay [6], 16.5 µM. Also, the TGI was 14.1 µM in [7], 8.31 µM in assay [8], 9.86 µM in assay [9] and 11.7 µM in assay [10].

Take `CCCCCCCCCC(CCCC(O)CC(=O)O)OC1OC(COC2OC(C)C(O)C(O)C2O)C(O)C(O)C1OC1OC(CO)C(O)C(O)C1OC1OC(C)C(O)C(O)C1O` (stereo not given): the GI50 in [1], in assay [2], in [3], in assay [4], in [5] and in assay [6] was above 40 µM each time. Moreover, the GI50 in [7], in assay [8], in [9] and in assay [10] was above 40 µM throughout. Moreover, the TGI in [1], in assay [2], in assay [3], in assay [4], in assay [5] and in assay [6] was above 40 µM each time. Also, the TGI in [7], in [8], in assay [9] and in [10] was above 40 µM throughout.

For the molecule `COC(=O)c1ccc(C2SCC(=O)N2NC(=O)C(O)c2ccccc2)cc1` (stereo not given), the GI50 in [1], in [2], in [3], in [4], in [5] and in assay [6] was above 100 µM each time. For the same molecule, the GI50 in assay [7], in [8], in assay [9] and in [10] was above 100 µM throughout. The TGI in assay [1], in [2], in assay [3], in assay [4], in assay [5] and in assay [6] was above 100 µM each time. In addition, the TGI in assay [7], in assay [8], in [9] and in assay [10] was above 100 µM in each case.

As for `COc1cc(NC(N)=NCCC(C)(C)c2ccc(C(F)(F)F)cc2)ncc1C#N`, the GI50 in [1] is 1.8 µM; in assay [2], 1.7 µM; in [3] it was 1.68 µM; in assay [4] it was 1.97 µM; in [5] it was 2.06 µM; in [6], 1.27 µM. The GI50 in assay [7] was 1.53 µM; in assay [8], 1.79 µM; in assay [9], 1.7 µM; in assay [10], 1.83 µM. Moreover, the TGI in assay [1] worked out at 3.38 µM; in assay [2], 3.24 µM; in [3] it was 3.39 µM; in assay [4], 4.27 µM; in assay [5] it was 4.93 µM; in [6], 3.3 µM. Also, the total growth inhibition concentration (TGI) in assay [7] was determined as 3.15 µM; in assay [8], 3.24 µM; in assay [9], 3.18 µM; in assay [10] it was 3.55 µM.

Turning to `O=C(Nc1ccc(Br)cc1F)c1cc(Br)ccc1O`, the GI50 in assay [1] was 1.93 µM; in [2], 0.713 µM; in assay [3] it was 0.4 µM; in [4], 0.716 µM; in [5] it was 2.03 µM; in [6], 0.322 µM. The GI50 is 0.396 µM in assay [7], 0.661 µM in assay [8], 0.959 µM in [9] and 0.5 µM in assay [10]. Further, the TGI in assay [1] is 5.66 µM; in [2] it was 5.48 µM; in assay [3], 15.3 µM; in assay [4], 11.6 µM; in [5], above 44.4 µM; in assay [6], 2.02 µM. For the same molecule, the TGI in assay [7] came out at 3.62 µM; in assay [8] it was 3.33 µM; in [9], 15.4 µM; in assay [10] it was 7.2 µM.

With `COc1cc(-c2cc(CCC(=O)Nc3ccccc3[N+](=O)[O-])n(-c3ccc([N+](=O)[O-])cc3[N+](=O)[O-])n2)ccc1O`, the TGI is above 10 µM in [1]; above 100 µM in [2]; above 100 µM in assay [3]; above 100 µM in assay [4]; above 100 µM in assay [5]; above 100 µM in assay [6]. Moreover, the TGI in assay [7], in [8], in [9] and in [10] was above 100 µM throughout. In addition, the GI50 in [2], in assay [3], in [4], in [5], in [6] and in assay [7] was above 100 µM throughout. Further, the GI50 in assay [8], in assay [9] and in assay [10] was above 100 µM throughout.

As to `CC(Oc1ccc2cc(C(=O)c3ccccc3)c(=O)oc2c1)C(=O)O` (stereo not given), the TGI in assay [1], in assay [2], in assay [3], in assay [4], in assay [5] and in assay [7] was above 100 µM each time. For the same molecule, the TGI in [8], in assay [9] and in assay [10] was above 100 µM in each case.

As to `ClC[Si]12OCCN(CCO1)CCO2`, the TGI in assay [1], in [3], in [4], in assay [5], in [6] and in [7] was above 100 µM throughout. For the same molecule, the TGI in assay [8], in assay [9] and in [10] was above 100 µM throughout.

`CC1(C)OC(=O)C(=C2CC(c3ccccc3)c3ccccc32)C(=O)O1` (stereo not given): the TGI in assay [2], in assay [3], in [4], in assay [5], in [6] and in assay [7] was above 100 µM each time. Also, the TGI in assay [8], in assay [9] and in [10] was above 100 µM in each case.

For `Oc1cc2ccccc2cc1-c1n[nH]c(=S)n1-c1ccc(Cl)cc1`, the GI50 was 9.14 µM in [1]; 15.1 µM in assay [2]; 1.31 µM in [3]; 6.46 µM in assay [4]; 21.9 µM in assay [5]; 12.1 µM in assay [6]. The results for the GI50 in assay [7], in assay [8] and in assay [9] were 20 µM, 21.5 µM and 38.4 µM, respectively. Also, the TGI is above 100 µM in assay [1]; above 100 µM in assay [2]; 7.67 µM in assay [3]; 32.9 µM in assay [4]; above 100 µM in assay [5]; 43.5 µM in assay [6]. In addition, the TGI is 60.3 µM in assay [7], 67.1 µM in assay [8] and above 100 µM in assay [9].

Take `CCc1ccc(Nc2cc(C)nc3nc(C)nn23)cc1`: the GI50 in [1] is 70.6 µM; in assay [3], 61.2 µM; in assay [4], 69.1 µM; in [5] it was 48.1 µM; in [6], 32 µM; in assay [7], above 100 µM. The GI50 in [8] is 19.3 µM; in [9], 79.8 µM; in assay [10], 71.1 µM. The TGI in [1], in [3], in assay [4], in assay [5], in assay [6] and in assay [7] was above 100 µM in each case. In addition, the TGI in [8], in assay [9] and in assay [10] was above 100 µM each time.

With `O=C1OC2C(O)C(=O)OC2C1O` (stereo not given), the TGI in [1], in assay [2], in assay [3], in assay [4], in assay [5] and in assay [7] was above 100 µM each time. Further, the TGI in assay [8], in assay [9] and in assay [10] was above 100 µM in each case.

As to `C=C(CN1CCN(c2cccc(F)c2)CC1)c1ccc(C(=O)Nc2ccccc2N)cc1`, the GI50 is 1.38 µM in assay [1]; 0.311 µM in assay [2]; 0.333 µM in assay [3]; 2.3 µM in [4]; 0.429 µM in assay [6]; 1.77 µM in assay [7]. In addition, the GI50 is 0.563 µM in assay [8], 1.99 µM in assay [9] and 3.95 µM in assay [10]. Also, the TGI was 50.1 µM in assay [1]; 2.38 µM in assay [2]; 3.9 µM in assay [3]; above 100 µM in [4]; 2.89 µM in [6]; 17.3 µM in assay [7]. Also, the TGI is 6.09 µM in assay [8], 47.9 µM in [9] and above 100 µM in [10].

Consider `CC(=O)OCC1OC(n2c(-c3ccccc3)c(C)c(C)c(C#N)c2=S)C(OC(C)=O)C(OC(C)=O)C1OC(C)=O` (stereo not given), for which the TGI in assay [1] was above 100 µM; in assay [2], above 100 µM; in [3], above 100 µM; in assay [4], above 100 µM; in assay [5] it was above 100 µM; in [7], > 50 µM and 54.7 µM. For the same molecule, the TGI in assay [8], in assay [9] and in assay [10] was above 100 µM in each case. The GI50 was 15.4 µM and 35 µM in assay [2]; 18.3 µM and 93.3 µM in [4]; 49.2 µM and > 100 µM in assay [5]; 32.9 µM and 16.3 µM in [7]; 23.8 µM and 68.3 µM in assay [8]; 17.6 µM and > 100 µM in assay [9].

For `COc1ccc(Cn2c(Br)c3c(c2-c2cc(OC)c(OC)c(OC)c2)CCc2sc(NC(C)=O)nc2-3)cc1`, the GI50 in assay [1] is 4.03 µM; in assay [2], 3.57 µM; in assay [3], 4.46 µM; in [4], 6.15 µM; in [6], 4.23 µM; in [7], 8.6 µM. For the same molecule, the GI50 in assay [8] is 2.24 µM; in assay [9], 4.7 µM; in assay [10], 3.05 µM. The TGI in assay [1], in assay [2], in assay [3], in assay [4], in assay [6] and in [7] was above 100 µM throughout. Further, the figures for the TGI in assay [8], in assay [9] and in assay [10] were 10.7 µM, above 100 µM and above 100 µM, respectively.

Consider `CC(=O)OCC1OC(Sc2ccccn2)C=CC1OC(C)=O` (stereo not given), for which the TGI in assay [1], in assay [2], in [3], in assay [4], in [5] and in assay [7] was above 100 µM each time. In addition, the TGI in assay [8] and in [9] was above 100 µM each time.

Source of the values: PubChem BioAssay (NCI).
